Source: patent US10227357B2, “Compounds and methods for kinase modulation, and indications therefor” (Plexxikon Inc., priority 2012, dated 2019)

Assays:
c-kit kinase = molecular target: T1, c-kit kinase (Homo sapiens, UniProt P10721); assay: c-Kit biochemical assay, AlphaScreen, 10 μM ATP; conditions: c-kit biochemical inhibitory activity; read-out: Biochemical activity (IC50 μM) Kit
T1 construct: The c-kit (or kinase domain thereof) is an active kinase in AlphaScreen; poly-Histidine tag (in-house protein only) (cleaved yes); host or cells: E. coli BL21(DE3)RIL, co-expressed with PTP1B
T1 sequence (P10721 26-976): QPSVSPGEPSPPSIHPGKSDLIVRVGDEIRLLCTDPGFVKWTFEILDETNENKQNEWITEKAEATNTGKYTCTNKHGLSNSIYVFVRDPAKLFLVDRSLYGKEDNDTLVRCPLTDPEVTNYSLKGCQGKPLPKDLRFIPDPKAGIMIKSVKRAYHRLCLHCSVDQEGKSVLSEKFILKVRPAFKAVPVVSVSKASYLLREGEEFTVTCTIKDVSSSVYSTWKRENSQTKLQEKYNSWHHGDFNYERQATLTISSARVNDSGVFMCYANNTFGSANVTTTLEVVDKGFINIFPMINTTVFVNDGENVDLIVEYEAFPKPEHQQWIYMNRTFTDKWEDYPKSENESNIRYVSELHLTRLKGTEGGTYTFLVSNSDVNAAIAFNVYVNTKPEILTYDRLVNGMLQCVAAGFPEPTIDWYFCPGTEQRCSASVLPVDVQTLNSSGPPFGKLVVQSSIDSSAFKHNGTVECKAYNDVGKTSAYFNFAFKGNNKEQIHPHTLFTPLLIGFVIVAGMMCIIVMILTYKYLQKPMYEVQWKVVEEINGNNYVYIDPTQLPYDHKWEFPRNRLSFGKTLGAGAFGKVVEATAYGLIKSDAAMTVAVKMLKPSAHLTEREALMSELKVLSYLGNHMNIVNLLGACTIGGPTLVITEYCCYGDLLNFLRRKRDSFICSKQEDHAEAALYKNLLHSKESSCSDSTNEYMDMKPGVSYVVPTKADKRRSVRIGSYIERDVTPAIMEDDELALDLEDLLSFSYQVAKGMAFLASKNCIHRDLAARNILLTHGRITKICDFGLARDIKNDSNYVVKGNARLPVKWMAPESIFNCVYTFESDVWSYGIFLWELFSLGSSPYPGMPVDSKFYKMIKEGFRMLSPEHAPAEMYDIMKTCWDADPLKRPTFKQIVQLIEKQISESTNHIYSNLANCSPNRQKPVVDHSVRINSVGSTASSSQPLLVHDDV
Procedure, shortened: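 His-tagged c-Kit expressed in E. coli with co-expressed PTP1B (dephosphorylated), tag removed; 0.1 ng per reaction with biotinylated-peptide substrate in 50 mM HEPES pH 7.2, 5 mM MgCl2, 5 mM MnCl2, 5% DMSO, 10 μM ATP, 1 h at room temperature. Phosphorylation detected by AlphaScreen (streptavidin donor, PY20 acceptor beads); IC50 from 8-point 1:3 dilution series.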

c-kit mutant D816V = molecular target: T2, c-kit mutant D816V (Homo sapiens, UniProt P10721, D816V/DEL694-753); assay: c-Kit mutant D816V biochemical assay, AlphaScreen; conditions: c-kit D816V biochemical inhibitory activity; read-out: Biochemical activity (IC50 μM) Kit D816V
T2 construct: residues 551-934, kinase insertion domain residues 694-753 deleted; 6x-histidine (N); made in house; host or cells: E. coli Arctic Express (DE3) RIL (Stratagene)
T2 sequence (P10721 with tags, fused parts or gaps DEL694-753/D816V): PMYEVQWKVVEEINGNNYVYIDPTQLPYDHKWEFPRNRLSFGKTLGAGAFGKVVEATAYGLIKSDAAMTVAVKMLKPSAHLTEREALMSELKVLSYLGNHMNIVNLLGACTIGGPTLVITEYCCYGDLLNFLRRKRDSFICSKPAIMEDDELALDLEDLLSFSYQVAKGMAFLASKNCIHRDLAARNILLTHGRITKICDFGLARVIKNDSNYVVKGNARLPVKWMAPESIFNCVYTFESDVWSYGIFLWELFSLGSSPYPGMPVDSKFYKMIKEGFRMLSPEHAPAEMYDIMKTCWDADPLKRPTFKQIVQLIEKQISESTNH
Procedure, shortened: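 Purified His-tagged c-Kit D816V (E. coli-expressed) assayed in 25 mM HEPES pH 7.2 with Mg/Mn, 5% DMSO and 10 μM ATP, 30 min at room temperature, 8-point 1:3 dilutions. Phosphorylation detected by AlphaScreen with streptavidin donor and PY20 acceptor beads; IC50 from signal versus concentration.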

Q: How did the IC50 (c-kit kinase) turn out when `Cc1cc2c(-c3ccc(NS(=O)(=O)c4cccc(Cl)c4F)c(F)c3)ncnc2[nH]1` [P-0351, 3-chloro-2-fluoro-N-[2-fluoro-4-(6-methyl-7H-pyrrolo[2,3-d]pyrimidin-4-yl)phenyl]benzenesulfonamide] was run?
A: Its IC50 is 1 to 10 µM.

Q: What about the IC50 (c-kit mutant D816V) of the same compound?
A: Its IC50 is 10 to 200 µM.

Q: Which IC50 (c-kit kinase) does the source give for `COc1cc2ncnc(-c3ccc(S(=O)(=O)Nc4ccc(F)cc4)cc3F)c2cc1OCCCN1CCOCC1` [P-0248, 3-fluoro-N-(4-fluorophenyl)-4-[7-methoxy-6-(3-morpholinopropoxy)quinazolin-4-yl]benzenesulfonamide] here?
A: Its IC50 is 10 to 200 µM.

Q: What about the IC50 (c-kit mutant D816V) of the same compound?
A: Its IC50 is 1 to 10 µM.

Q: What does the source list for `Cc1ccc([C@H](C)NC(=O)N2CCN(c3ncnc4[nH]c(-c5ccc(F)cc5)cc34)CC2(C)C)cc1` [P-0719, 4-[6-(4-fluorophenyl)-7H-pyrrolo[2,3-d]pyrimidin-4-yl]-2,2-dimethyl-N-[(1S)-1-(p-tolyl)ethyl]piperazine-1-carboxamide]?
A: IC50 (c-kit kinase): 0.0001 to 1 µM; IC50 (c-kit mutant D816V): 0.0001 to 1 µM

Q: With `C[C@H](NC(=O)N1CCN(c2ncnc3[nH]c(-c4ccc(F)cc4)cc23)C[C@H]1C)c1ccc(F)cc1` [P-0030, (2R)-N-[(1S)-1-(4-fluorophenyl)ethyl]-4-[6-(4-fluorophenyl)-7H-pyrrolo[2,3-d]pyrimidin-4-yl]-2-methyl-piperazine-1-carboxamide] as the compound, how does the IC50 (c-kit kinase) read?
A: The IC50 was 10 to 200 µM.

Q: And the IC50 (c-kit mutant D816V)?
A: The IC50 was 0.0001 to 1 µM.

Q: With `COc1ccc(S(=O)(=O)Nc2ccc(-c3ncnc4[nH]c(C)cc34)cc2)cn1` [P-0324, 6-methoxy-N-[4-(6-methyl-7H-pyrrolo[2,3-d]pyrimidin-4-yl)phenyl]pyridine-3-sulfonamide] as the compound, how does the IC50 (c-kit kinase) read?
A: Its IC50 is 1 to 10 µM.

Q: And the IC50 (c-kit mutant D816V)?
A: The IC50 was 1 to 10 µM.

Q: What does the source list for `CC1CN(c2ncnc3[nH]c(-c4ccncc4)cc23)CCN1C(=O)Nc1ccccc1` (centres unmarked) [P-0068, 2-methyl-N-phenyl-4-[6-(4-pyridyl)-7H-pyrrolo[2,3-d]pyrimidin-4-yl]piperazine-1-carboxamide]?
A: IC50 (c-kit kinase): 1 to 10 µM; IC50 (c-kit mutant D816V): 1 to 10 µM

Q: Which IC50 (c-kit kinase) does the source give for `COc1cc(NC(=O)N2CCN(c3ncnc4[nH]c(-c5cccnc5)cc34)CC2)cc(OC)c1` [P-0229, N-(3,5-dimethoxyphenyl)-4-[6-(3-pyridyl)-7H-pyrrolo[2,3-d]pyrimidin-4-yl]piperazine-1-carboxamide] here?
A: The IC50 was 1 to 10 µM.

Q: And the IC50 (c-kit mutant D816V)?
A: The IC50 was 0.0001 to 1 µM.

Q: `COc1ccc(S(=O)(=O)Nc2ccc(-c3ncnc4[nH]c(C)cc34)c(F)c2)cc1` [P-0363, N-[3-fluoro-4-(6-methyl-7H-pyrrolo[2,3-d]pyrimidin-4-yl)phenyl]-4-methoxy-benzenesulfonamide] was tested. Which IC50 (c-kit kinase) did it give?
A: Its IC50 is 1 to 10 µM.

Q: What about the IC50 (c-kit mutant D816V) of the same compound?
A: Its IC50 is 1 to 10 µM.

Q: Which results are given for `N#CC1(c2ccc(-c3cc4c(N5CCN(C(=O)Nc6ccc(OC(F)(F)F)cc6)CC5)ncnc4[nH]3)cc2)CC1` [P-0113, 4-[6-[4-(1-cyanocyclopropyl)phenyl]-7H-pyrrolo[2,3-d]pyrimidin-4-yl]-N-[4-(trifluoromethoxy)phenyl]piperazine-1-carboxamide]?
A: IC50 (c-kit kinase): 0.0001 to 1 µM; IC50 (c-kit mutant D816V): 1 to 10 µM

Q: How did the IC50 (c-kit kinase) turn out when `c1nc(N2CCNCC2)c2cc[nH]c2n1` [P-0233, 4-piperazin-1-yl-7H-pyrrolo[2,3-d]pyrimidine] was run?
A: The IC50 was 10 to 200 µM.

Q: What about the IC50 (c-kit mutant D816V) of the same compound?
A: The IC50 was 10 to 200 µM.

Q: Which IC50 (c-kit kinase) does the source give for `CC(=N)Nc1ccc(-c2ncnc3cc(C4=CCN(C(=O)N5CCOCC5)CC4)sc23)cc1` [P-0559, N-[4-[6-[1-(morpholine-4-carbonyl)-3,6-dihydro-2H-pyridin-4-yl]thieno[3,2-d]pyrimidin-4-yl]phenyl]acetamidine] here?
A: Its IC50 is 10 to 200 µM.

Q: And the IC50 (c-kit mutant D816V)?
A: Its IC50 is 0.0001 to 1 µM.

Q: Which results are given for `N#Cc1ccc(-c2cc3c(N4CCN(C(=O)NCc5ccc(F)cc5)CC4)ncnc3[nH]2)cc1` [P-0109, 4-[6-(4-cyanophenyl)-7H-pyrrolo[2,3-d]pyrimidin-4-yl]-N-[(4-fluorophenyl)methyl]piperazine-1-carboxamide]?
A: IC50 (c-kit kinase): 10 to 200 µM; IC50 (c-kit mutant D816V): 1 to 10 µM

Q: For `Cn1cc(-c2cc3c(N4CCC(NS(=O)(=O)c5ccc(Cl)cc5)CC4)ncnc3[nH]2)cn1` [P-0491, 4-chloro-N-[1-[6-(1-methylpyrazol-4-yl)-7H-pyrrolo[2,3-d]pyrimidin-4-yl]-4-piperidyl]benzenesulfonamide], which IC50 (c-kit kinase) is on record?
A: The IC50 was 1 to 10 µM.

Q: What about the IC50 (c-kit mutant D816V) of the same compound?
A: The IC50 was 0.0001 to 1 µM.

Q: With `COc1cc(-c2cc3c(N4CCN(C(=O)N[C@@H](C)c5cccc(OC(F)F)c5)C(C)(C)C4)ncnc3[nH]2)ccn1` [P-0012, N-[(1S)-1-[3-(difluoromethoxy)phenyl]ethyl]-4-[6-(2-methoxy-4-pyridyl)-7H-pyrrolo[2,3-d]pyrimidin-4-yl]-2,2-dimethyl-piperazine-1-carboxamide] as the compound, how does the IC50 (c-kit kinase) read?
A: Its IC50 is 1 to 10 µM.

Q: What about the IC50 (c-kit mutant D816V) of the same compound?
A: Its IC50 is 0.0001 to 1 µM.

Q: Which IC50 (c-kit kinase) does the source give for `CCS(=O)(=O)Nc1cccc(-c2ncnc3[nH]c(-c4ccc(F)cc4)cc23)c1` [P-0407, N-[3-[6-(4-fluorophenyl)-7H-pyrrolo[2,3-d]pyrimidin-4-yl]phenyl]ethanesulfonamide] here?
A: Its IC50 is 1 to 10 µM.

Q: And the IC50 (c-kit mutant D816V)?
A: The IC50 was 1 to 10 µM.

Q: With `COCCOc1cc2ncnc(-c3ccc(NS(=O)(=O)c4ccc(OC(F)F)cc4)cc3F)c2cc1OCCOC` [P-0259, N-[4-[6,7-bis(2-methoxyethoxy)quinazolin-4-yl]-3-fluoro-phenyl]-4-(difluoromethoxy)benzenesulfonamide] as the compound, how does the IC50 (c-kit kinase) read?
A: The IC50 was 1 to 10 µM.

Q: What about the IC50 (c-kit mutant D816V) of the same compound?
A: Its IC50 is 0.0001 to 1 µM.

Q: What does the source list for `C[C@H](NC(=O)N1CCN(c2ncnc3[nH]c(-c4ccc(C#N)cc4)cc23)CC1)c1cccc(Cl)c1` [P-0697, N-[(1S)-1-(3-chlorophenyl)ethyl]-4-[6-(4-cyanophenyl)-7H-pyrrolo[2,3-d]pyrimidin-4-yl]piperazine-1-carboxamide]?
A: IC50 (c-kit kinase): 1 to 10 µM; IC50 (c-kit mutant D816V): 0.0001 to 1 µM

Q: Which results are given for `O=C(Nc1ccc(F)c(Cl)c1)N1CCN(c2ncnc3[nH]ccc23)CC1` [P-0165, N-(3-chloro-4-fluoro-phenyl)-4-(7H-pyrrolo[2,3-d]pyrimidin-4-yl)piperazine-1-carboxamide]?
A: IC50 (c-kit kinase): 1 to 10 µM; IC50 (c-kit mutant D816V): 10 to 200 µM

Q: Which results are given for `COc1ccc(NC(=O)N2CCN(c3ncnc4[nH]ccc34)CC2)cc1` [P-0235, N-(4-methoxyphenyl)-4-(7H-pyrrolo[2,3-d]pyrimidin-4-yl)piperazine-1-carboxamide]?
A: IC50 (c-kit kinase): 10 to 200 µM; IC50 (c-kit mutant D816V): 1 to 10 µM

Q: Which IC50 (c-kit kinase) does the source give for `CS(=O)(=O)Nc1ccc(-c2ncnc3[nH]c(-c4cc(F)ccc4F)cc23)c(F)c1` [P-0339, N-[4-[6-(2,5-difluorophenyl)-7H-pyrrolo[2,3-d]pyrimidin-4-yl]-3-fluoro-phenyl]methanesulfonamide] here?
A: The IC50 was 1 to 10 µM.

Q: What about the IC50 (c-kit mutant D816V) of the same compound?
A: Its IC50 is 0.0001 to 1 µM.

Q: Which results are given for `Cc1cccc(S(=O)(=O)Nc2ccc(-c3ncnc4[nH]c(C)cc34)cc2)c1` [P-0283, 3-methyl-N-[4-(6-methyl-7H-pyrrolo[2,3-d]pyrimidin-4-yl)phenyl]benzenesulfonamide]?
A: IC50 (c-kit kinase): 10 to 200 µM; IC50 (c-kit mutant D816V): 1 to 10 µM

Q: `Cn1cc(-c2cc3ncnc(-c4ccc(N)nc4)c3s2)cn1` [P-0621, 5-[6-(1-methylpyrazol-4-yl)thieno[3,2-d]pyrimidin-4-yl]pyridin-2-amine] was tested. Which IC50 (c-kit kinase) did it give?
A: Its IC50 is 1 to 10 µM.

Q: What about the IC50 (c-kit mutant D816V) of the same compound?
A: Its IC50 is 1 to 10 µM.

Q: With `CCCS(=O)(=O)Nc1cccc(-c2ncnc3[nH]c(-c4ccc(F)cc4)cc23)c1` [P-0434, N-[3-[6-(4-fluorophenyl)-7H-pyrrolo[2,3-d]pyrimidin-4-yl]phenyl]propane-1-sulfonamide] as the compound, how does the IC50 (c-kit kinase) read?
A: Its IC50 is 1 to 10 µM.

Q: What about the IC50 (c-kit mutant D816V) of the same compound?
A: Its IC50 is 10 to 200 µM.

Q: `Cc1nc(-c2cccc(NC(=O)NC3CCN(c4ncnc5[nH]ccc45)CC3)c2)no1` [P-0507, 1-[3-(5-methyl-1,2,4-oxadiazol-3-yl)phenyl]-3-[1-(7H-pyrrolo[2,3-d]pyrimidin-4-yl)-4-piperidyl]urea] was tested. Which IC50 (c-kit kinase) did it give?
A: Its IC50 is 10 to 200 µM.

Q: And the IC50 (c-kit mutant D816V)?
A: Its IC50 is 10 to 200 µM.

Q: With `O=C(Nc1ccc(F)cc1)N1CCN(c2ncnc3[nH]ccc23)CC1` [P-0183, N-(4-fluorophenyl)-4-(7H-pyrrolo[2,3-d]pyrimidin-4-yl)piperazine-1-carboxamide] as the compound, how does the IC50 (c-kit kinase) read?
A: Its IC50 is 1 to 10 µM.

Q: What about the IC50 (c-kit mutant D816V) of the same compound?
A: Its IC50 is 10 to 200 µM.
